According to patent US9969726B2, “Metabotropic glutamate receptor negative allosteric modulators (NAMS) and uses thereof” (Sanford-Burnham Medical Research Institute, priority 2014, dated 2018):
Read-outs that look alike come from different tables or passages of the source.

Key:
[1] = target: rat mGlu2 receptor (Rattus norvegicus (Rat), UniProt P31421); experiment: mGlu2 in vitro GIRK thallium flux assay; format: cell-based; details: NAM, EC80 glutamate, HEK-293 GIRK cells
Procedure, shortened: (§1)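 Cells expressing rat mGlu2 or mGlu3 with GIRK, plated overnight at 37 °C. Test compounds (0.3% DMSO, 10-point 1:3 series) preincubated 2.5 or 60 min, then thallium buffer plus EC80 glutamate added. Fluorescence slope 5–15 s after addition, normalised to vehicle and maximal agonist, fitted by four-parameter logistic.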

[2] = target: rat mGlu3 receptor (Rattus norvegicus (Rat), UniProt P31422); experiment: mGlu3 in vitro GIRK thallium flux assay; format: cell-based; details: NAM; 2.5 min compound incubation; EC80 glutamate; HEK-293 GIRK cells
rat mGlu3 receptor, sequence (P31422 23-879): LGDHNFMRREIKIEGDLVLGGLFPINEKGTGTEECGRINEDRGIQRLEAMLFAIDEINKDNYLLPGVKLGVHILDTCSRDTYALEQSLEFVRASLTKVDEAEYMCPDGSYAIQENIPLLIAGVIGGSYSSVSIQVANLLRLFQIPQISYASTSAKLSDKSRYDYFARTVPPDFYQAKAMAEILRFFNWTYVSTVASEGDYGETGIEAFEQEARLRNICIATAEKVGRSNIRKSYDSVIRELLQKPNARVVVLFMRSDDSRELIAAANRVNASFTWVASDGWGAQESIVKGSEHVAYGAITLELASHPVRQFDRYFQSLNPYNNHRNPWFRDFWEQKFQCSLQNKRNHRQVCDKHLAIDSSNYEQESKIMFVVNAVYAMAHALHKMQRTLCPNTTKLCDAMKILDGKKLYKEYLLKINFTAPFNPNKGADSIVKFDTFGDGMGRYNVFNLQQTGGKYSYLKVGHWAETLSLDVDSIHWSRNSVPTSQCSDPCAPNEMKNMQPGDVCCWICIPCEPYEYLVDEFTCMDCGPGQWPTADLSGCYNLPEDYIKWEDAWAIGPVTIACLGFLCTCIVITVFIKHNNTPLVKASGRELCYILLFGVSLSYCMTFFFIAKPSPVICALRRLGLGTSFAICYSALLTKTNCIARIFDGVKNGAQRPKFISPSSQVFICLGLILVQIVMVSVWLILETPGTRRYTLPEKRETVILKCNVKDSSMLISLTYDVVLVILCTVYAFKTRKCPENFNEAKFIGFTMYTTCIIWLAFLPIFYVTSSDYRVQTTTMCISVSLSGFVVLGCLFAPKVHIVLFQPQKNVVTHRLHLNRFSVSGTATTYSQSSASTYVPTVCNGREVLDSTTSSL
Procedure, shortened: as §1

[3] = 2.5 min compound incubation, read-out: mGlu2 EC50 (μM) (2.5 min)
[4] = read-out: mGlu2 EC50 (μM) (60 min), 60 min compound incubation
[5] = mGlu2 EC50 (μM) (60 min), 60 min compound incubation

rat mGlu2 receptor, sequence (P31421 19-872): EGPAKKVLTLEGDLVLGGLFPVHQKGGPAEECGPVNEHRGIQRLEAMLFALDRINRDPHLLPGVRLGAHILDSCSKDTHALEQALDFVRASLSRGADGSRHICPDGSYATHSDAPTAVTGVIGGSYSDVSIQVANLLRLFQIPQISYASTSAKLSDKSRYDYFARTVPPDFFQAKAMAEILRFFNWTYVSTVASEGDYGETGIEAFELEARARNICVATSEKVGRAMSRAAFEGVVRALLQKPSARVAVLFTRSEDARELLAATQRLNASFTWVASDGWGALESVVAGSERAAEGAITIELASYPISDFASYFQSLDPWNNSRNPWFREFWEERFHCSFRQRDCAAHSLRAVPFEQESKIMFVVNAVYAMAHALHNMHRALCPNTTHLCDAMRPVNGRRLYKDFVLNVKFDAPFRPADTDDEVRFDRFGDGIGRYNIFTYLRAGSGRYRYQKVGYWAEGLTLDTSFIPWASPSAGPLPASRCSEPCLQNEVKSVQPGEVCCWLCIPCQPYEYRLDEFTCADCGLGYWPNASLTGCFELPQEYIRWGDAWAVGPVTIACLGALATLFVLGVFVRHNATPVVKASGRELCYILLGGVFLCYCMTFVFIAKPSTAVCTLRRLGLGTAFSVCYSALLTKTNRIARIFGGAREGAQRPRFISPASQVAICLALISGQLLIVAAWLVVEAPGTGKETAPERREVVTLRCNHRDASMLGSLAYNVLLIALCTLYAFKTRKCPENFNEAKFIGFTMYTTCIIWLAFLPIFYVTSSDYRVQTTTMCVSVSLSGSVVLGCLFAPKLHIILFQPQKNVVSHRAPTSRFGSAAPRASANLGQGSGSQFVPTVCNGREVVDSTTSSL

EC50 [1, 5] | Structure (SMILES) | EC50 [1, 3] | EC50 [1, 4] | EC50 [2]
 | O=C(O)c1cc(-c2cccc(-c3nccc(-c4ccoc4)n3)c2)ccc1F [Example 118, 4-Fluoro-3′-(4-(furan-3-yl)pyrimidin-2-yl)biphenyl-3-carboxylic Acid] | 0.26 µM | 1.01 µM | 1.38 µM
 | Cc1cc(-c2ccoc2)nc(-c2cccc(-c3cccc(C(=O)O)c3)c2)n1 [Example 119, 3′-(4-(Furan-3-yl)-6-methylpyrimidin-2-yl)biphenyl-3-carboxylic Acid] | 0.05 µM | 0.06 µM | 0.35 µM
 | COc1ccc(-c2cc(C(F)(F)F)nc(-c3cccc(-c4ccc(F)c(C(=O)O)c4)c3)n2)cn1 [Example 120, 4-Fluoro-3′-(4-(6-methoxypyridin-3-yl)-6-(trifluoromethyl)pyrimidin-2-yl)-[1,1′-biphenyl]-3-carboxylic Acid] | 1.43 µM | 0.35 µM | 1.41 µM
 | FC(F)(F)c1ccc(-c2cc(C(F)(F)F)nc(-c3cccc(-c4cccc(-c5nn[nH]n5)c4)c3)n2)cn1 [Example 123, 2-(3′-(2H-Tetrazol-5-yl)biphenyl-3-yl)-4-(trifluoromethyl)-6-(6-(trifluoromethyl)pyridin-3-yl)pyrimidine] | 0.75 µM | 0.43 µM | 2.39 µM
 | NS(=O)(=O)c1cccc(-c2cn(-c3nc(-c4ccc(C(F)(F)F)nc4)cc(C(F)(F)F)n3)cn2)c1 [Example 125, 3-(1-(4-(Trifluoromethyl)-6-(6-(trifluoromethyl)pyridin-3-yl)pyrimidin-2-yl)-1H-imidazol-4-yl)benzenesulfonamide] | > 10 µM | > 10 µM | > 30 µM
 | Nc1cccc(-c2cn(-c3nc(-c4ccc(C(F)(F)F)nc4)cc(C(F)(F)F)n3)cn2)c1 [Example 126, 3-(1-(4-(Trifluoromethyl)-6-(6-(trifluoromethyl)pyridin-3-yl)pyrimidin-2-yl)-1H-imidazol-4-yl)aniline] | > 30 µM | > 10 µM | > 30 µM
 | O=C(O)c1cc(-c2cccc(Nc3nc(-c4ccco4)cc(C(F)(F)F)n3)c2)ccc1F [Example 127, 4-Fluoro-3′-(4-(furan-2-yl)-6-(trifluoromethyl)pyrimidin-2-ylamino)biphenyl-3-carboxylic Acid] | 5.33 µM | > 10 µM | 3.9 µM
 | O=C(O)c1cc(-c2cccc(Oc3nc(-c4ccco4)cc(C(F)(F)F)n3)c2)ccc1F [Example 128, 4-Fluoro-3′-(4-(furan-2-yl)-6-(trifluoromethyl)pyrimidin-2-yloxy)biphenyl-3-carboxylic Acid] | > 30 µM | > 30 µM | > 30 µM
 | O=C(O)c1cc(-c2cccc(Sc3nc(-c4ccco4)cc(C(F)(F)F)n3)c2)ccc1F [Example 129, 4-Fluoro-3′-(4-(furan-2-yl)-6-(trifluoromethyl)pyrimidin-2-ylthio)biphenyl-3-carboxylic Acid] | > 10 µM | 3.25 µM | > 10 µM
 | Fc1ccc(C#Cc2cccc(-c3nc(-c4ccc(C(F)(F)F)nc4)cc(C(F)(F)F)n3)c2)cc1 [Example 130, 2-(3-((4-Fluorophenyl)ethynyl)phenyl)-4-(trifluoromethyl)-6-(6-(trifluoromethyl)pyridin-3-yl)pyrimidine] | > 30 µM | > 10 µM | > 30 µM
 | O=C(NO)c1cc(-c2cccc(-c3nc(-c4ccoc4)cc(C(F)(F)F)n3)c2)ccc1F [Example 131, 4-Fluoro-3′-(4-(furan-3-yl)-6-(trifluoromethyl)pyrimidin-2-yl)-N-hydroxy-[1,1′-biphenyl]-3-carboxamide] | > 10 µM | 3.36 µM | > 10 µM
 | CONC(=O)c1cc(-c2cccc(-c3nc(-c4ccoc4)cc(C(F)(F)F)n3)c2)ccc1F [Example 132, 4-Fluoro-3′-(4-(furan-3-yl)-6-(trifluoromethyl)pyrimidin-2-yl)-N-methoxy-[1,1′-biphenyl]-3-carboxamide] | > 10 µM | 7.1 µM | 5.26 µM
1.19 µM | Cc1cc2c(cc1C(F)(F)F)NC(=O)CC(c1cccc(Oc3ccccc3)c1)=N2 [Example 143, 7-Methyl-4-(3-phenoxyphenyl)-8-(trifluoromethyl)-1H-benzo[b][1, 4]diazepin-2 (3H)-one] | 2.21 µM |  | 2.62 µM
2.36 µM | Cc1cc2c(cc1C(F)(F)F)NC(=O)CC(c1cccc(OCc3ccccc3)c1)=N2 [Example 144, 4-(3-(Benzyloxy)phenyl)-7-methyl-8-(trifluoromethyl)-1H-benzo[b][1,4]diazepin-2(3H)-one] | > 10 µM |  | 2.93 µM
 | Cc1cc2c(cc1C(F)(F)F)NC(=O)CC(c1cccc(Oc3cccc(Br)c3)c1)=N2 [Example 145, 4-(3-(3-Bromophenoxy)phenyl)-7-methyl-8-(trifluoromethyl)-1H-benzo[b][1,4]diazepin-2(3H)-one] | > 10 µM | > 10 µM | > 10 µM
 | Cc1cc2c(cc1C(F)(F)F)NC(=O)CC(c1cccc(Oc3cc(F)cc(F)c3)c1)=N2 [Example 146, 4-(3-(3,5-difluorophenoxy)phenyl)-7-methyl-8-(trifluoromethyl)-1H-benzo[b][1,4]diazepin-2(3H)-one] | > 10 µM | > 10 µM | > 10 µM
 | Cc1cc2c(cc1C(F)(F)F)NC(=O)CC(c1cccc(Oc3ccccn3)c1)=N2 [Example 150, 7-Methyl-4-(3-(pyridin-2-yloxy)phenyl)-8-(trifluoromethyl)-1H-benzo[b][1,4]diazepin-2(3H)-one] | 2.79 µM |  | 1.52 µM
 | Cc1cc(-c2cccc(C3CC(=O)Nc4cc(NC(=O)Oc5ccccc5)ccc4N3)c2)cc(C)n1 (centres unmarked) [Example 163, Phenyl (2-(3-(2,6-dimethylpyridin-4-yl)phenyl)-4-oxo-2,3,4,5-tetrahydro-1H-benzo[b][1,4]diazepin-7-yl)carbamate] | > 10 µM | > 10 µM | > 10 µM
 | N#Cc1cc(C2=Nc3ccc(F)cc3NC(=O)C2)ccn1 [Example 180, 4-(8-Fluoro-2-oxo-2,3-dihydro-1H-benzo[b][1,4]diazepin-4-yl)picolinonitrile] | 0.88 µM | 0.31 µM | 0.86 µM
 | N#Cc1cc(C2=Nc3ccc(Cl)cc3NC(=O)C2)ccn1 [Example 181, 4-(8-Chloro-2-oxo-2,3-dihydro-1H-benzo[b][1,4]diazepin-4-yl)picolinonitrile] | > 10 µM |  | > 10 µM
 | N#Cc1cc(C2=Nc3ccc(I)cc3NC(=O)C2)ccn1 [Example 183, 4-(8-Iodo-2-oxo-2,3-dihydro-1H-benzo[b][1,4]diazepin-4-yl)picolinonitrile] | 0.11 µM | 0.03 µM | 0.07 µM
 | N#Cc1cc(C2=Nc3ccc(C#Cc4ccc(F)cc4)cc3NC(=O)C2)ccn1 [Example 185, 4-(8-((4-Fluorophenyl)ethynyl)-2-oxo-2,3-dihydro-1H-benzo[b][1,4]diazepin-4-yl)picolinonitrile] | > 10 µM |  | 1.45 µM
 | O=C1CC(c2ccnc(Cl)c2)=Nc2ccc(-c3ccc(Cl)cc3)cc2N1 [Example 186, 8-(4-Chlorophenyl)-4-(2-chloropyridin-4-yl)-1,3-dihydro-2H-benzo[b][1,4]diazepin-2-one] | 2.42 µM | 1.01 µM | 1.36 µM
 | O=C1CC(c2ccnc(Cl)c2)=Nc2ccc(-c3ccccc3F)cc2N1 [Example 187, 4-(2-Chloropyridin-4-yl)-8-(2-fluorophenyl)-1,3-dihydro-2H-benzo[b][1,4]diazepin-2-one] | 0.98 µM |  | 0.71 µM
 | O=C1CC(c2ccnc(Cl)c2)=Nc2ccc(-c3cccnc3F)cc2N1 [Example 188, 4-(2-Chloropyridin-4-yl)-8-(2-fluoropyridin-3-yl)-1,3-dihydro-2H-benzo[b][1,4]diazepin-2-one] | > 10 µM |  | 1.7 µM
 | O=C1CC(c2ccnc(Cl)c2)=Nc2ccc(C(F)(F)F)cc2N1 [Example 189, 4-(2-Chloropyridin-4-yl)-8-(trifluoromethyl)-1,3-dihydro-2H-benzo[b][1,4]diazepin-2-one] | 0.29 µM | 0.08 µM | 0.28 µM
 | O=C1CC(c2ccnc(Cl)c2)=Nc2ccc(-c3cc(F)cc(F)c3)cc2N1 [Example 190, 4-(2-Chloropyridin-4-yl)-8-(3,5-difluorophenyl)-1,3-dihydro-2H-benzo[b][1,4]diazepin-2-one] | > 10 µM |  | > 10 µM
 | CCOc1ccc(-c2ccc3c(c2)NC(=O)CC(c2ccnc(Cl)c2)=N3)cc1 [Example 192, 4-(2-Chloropyridin-4-yl)-8-(4-ethoxyphenyl)-1,3-dihydro-2H-benzo[b][1,4]diazepin-2-one] | > 10 µM |  | > 10 µM
 | Cc1cccc(-c2ccc3c(c2)NC(=O)CC(c2ccnc(Cl)c2)=N3)c1 [Example 193, 4-(2-Chloropyridin-4-yl)-8-(m-tolyl)-1,3-dihydro-2H-benzo[b][1,4]diazepin-2-one] | > 10 µM | 0.95 µM | > 10 µM
 | O=C1CC(c2ccnc(Br)c2)=Nc2ccc(-c3ccc(C(F)(F)F)cc3C(F)(F)F)cc2N1 [Example 194, 8-(2,4-Bis(trifluoromethyl)phenyl)-4-(2-bromopyridin-4-yl)-1,3-dihydro-2H-benzo[b][1,4]diazepin-2-one] | > 10 µM | 3.47 µM | > 10 µM

Structure (SMILES) | EC50 [1, 5] | EC50 [1, 3] | EC50 [1, 4] | EC50 [2]
Cc1cc(-c2ccoc2)nc(-c2cccc(-c3cc(F)cc(C(=O)O)c3)c2)n1 [Example 121, 5-Fluoro-3′-(4-(furan-3-yl)-6-methylpyrimidin-2-yl)-[1,1′-biphenyl]-3-carboxylic Acid] | 0.31 µM | 0.35 µM |  | 2.21 µM
